Experimental data as given in US20020137929A1, “1 - (3-heterocyclylphenyl) isothiourea, -isourea, -guanidine and -amidine herbicidal agents” (Intellectual Property Department, BASF Aktiengesellschaft, priority 1998, published 2002).

Legend:
[1] = test system: TRZAWR (Wheat, Winter, cv Riband); assay: Postemergence herbicidal evaluation; assay type: in vivo, Triticum aestivum
Outline: (§1)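 Young plants, roughly two weeks from seeding, receive the active ingredient as a sprayed dispersion (acetone/water 50/50, 0.5% TWEEN 20) at 40 psi. Doses span about 0.0156 to 0.500 kg/ha. A visual score from 0 to 9 compares treated with control plants four to five weeks on.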

[2] = test system: CHEAL (Lambsquarters, Common); assay: Preemergence herbicidal evaluation; assay type: in vivo, Chenopodium album; conditions: rated 4-5 weeks after treatment
Outline: (§2)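 Visual 0-9 rating vs control (stand, vigor, malformation, size, chlorosis, overall appearance), scored 4-5 wk after spraying. Seeded soil cups were treated preemergence with compound in aqueous acetone, ~0.0156-0.500 kg/ha equivalent.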

[3] = test system: CASOB (Sicklepod); assay: Postemergence herbicidal evaluation; assay type: in vivo, Cassia obtusifolia
Outline: as §1

[4] = test system: IPOHE (Morningglory, Ivyleaf); assay: Postemergence herbicidal evaluation; assay type: in vivo, Ipomoea hederacea
Outline: as §1

[5] = test system: AMBEL (Ragweed, Common); assay: Postemergence herbicidal evaluation; assay type: in vivo, Ambrosia artemisifolia
Outline: as §1

[6] = test system: MOOVA (Monochoria); assay: Preemergence weed control under flooded paddy conditions; assay type: in vivo, Monochoria vaginalis; conditions: rated 3-4 weeks after treatment
Outline: (§3)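 First, seeds or propagules go into the top 0.5 cm of silt loam; next, water is held 1.5 to 3 cm over the soil; then compound (50/50 acetone/water) is pipetted into it at about 0.0313 to 0.500 kg/ha; finally plants are rated visually 0-9 after three to four weeks.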

[7] = test system: ABUTH (Velvetleaf); assay: Preemergence herbicidal evaluation; assay type: in vivo, Abutilon theophrasti; conditions: rated 4-5 weeks after treatment
Outline: as §2

[8] = test system: GLXMAW (Soybean, Williams); assay: Preemergence herbicidal evaluation; assay type: in vivo, Glycine max, (L.) Merr. cv Williams; conditions: rated 4-5 weeks after treatment
Outline: as §2

[9] = test system: CHEAL (Lambsquarters, Common); assay: Postemergence herbicidal evaluation; assay type: in vivo, Chenopodium album
Outline: as §1

[10] = test system: ORYSAT (Rice, Tebonnet); assay: Preemergence herbicidal evaluation; assay type: in vivo, Oryza sativa, (L.) Tebonnet; conditions: rated 4-5 weeks after treatment
Outline: as §2

[11] = test system: GLXMAW (Soybean, Williams); assay: Postemergence herbicidal evaluation; assay type: in vivo, Glycine max, (L.) Merr. cv Williams
Outline: as §1

[12] = test system: AMBEL (Ragweed, Common); assay: Preemergence herbicidal evaluation; assay type: in vivo, Ambrosia artemisifolia; conditions: rated 4-5 weeks after treatment
Outline: as §2

[13] = test system: ECHCG (Barnyardgrass); assay: Postemergence herbicidal evaluation; assay type: in vivo, Echinochloa crus-galli
Outline: as §1

[14] = test system: IPOHE (Morningglory, Ivyleaf); assay: Preemergence herbicidal evaluation; assay type: in vivo, Ipomoea hederacea; conditions: rated 4-5 weeks after treatment
Outline: as §2

[15] = test system: CASOB (Sicklepod); assay: Preemergence herbicidal evaluation; assay type: in vivo, Cassia obtusifolia; conditions: rated 4-5 weeks after treatment
Outline: as §2

[16] = test system: SAGPY (Arrowhead (Pygmaea)); assay: Preemergence weed control under flooded paddy conditions; assay type: in vivo, Sagittaria pygmaea; conditions: rated 3-4 weeks after treatment
Outline: as §3

CCOC(=O)CN1C(=O)C(CC(=O)OCc2ccccc2)OC1=Nc1cc(-n2c(=O)cc(C(F)(F)F)n(C)c2=O)c(F)cc1Cl (stereo not drawn) [Compound 40, 2-{{2-Chloro-5-[3,6-dihydro-3-methyl-2,6-dioxo-4-(trifluoromethyl)-1(2H)-pyrimidinyl]-4-fluorophenyl}imino}-4-oxo-3,5-oxazolidinediacetic acid, 5-benzyl ethyl ester]
Postemergence herbicidal rating TRZAWR ([1]; Rate 0.0158 kg/ha): 4.0
Postemergence herbicidal rating TRZAWR ([1]; Rate 0.0315 kg/ha): 4.0
Postemergence herbicidal rating TRZAWR ([1]; Rate 0.0630 kg/ha): 4.5
Preemergence herbicidal rating CHEAL ([2]; rate 0.0313 kg/ha): 9.0
Preemergence herbicidal rating CHEAL ([2]; rate 0.0625 kg/ha): 9.0
Preemergence herbicidal rating CHEAL ([2]; rate 0.1250 kg/ha): 9.0
Preemergence herbicidal rating CHEAL ([2]; rate 0.2500 kg/ha): 9.0
Postemergence herbicidal rating CASOB ([3]; Rate 0.0158 kg/ha): 0.0
Postemergence herbicidal rating CASOB ([3]; Rate 0.0315 kg/ha): 2.0
Postemergence herbicidal rating CASOB ([3]; Rate 0.0630 kg/ha): 5.0
Postemergence herbicidal rating IPOHE ([4]; Rate 0.0158 kg/ha): 9.0
Postemergence herbicidal rating IPOHE ([4]; Rate 0.0315 kg/ha): 9.0
Postemergence herbicidal rating IPOHE ([4]; Rate 0.0630 kg/ha): 9.0
Postemergence herbicidal rating AMBEL ([5]; Rate 0.0158 kg/ha): 9.0
Postemergence herbicidal rating AMBEL ([5]; Rate 0.0315 kg/ha): 9.0
Postemergence herbicidal rating AMBEL ([5]; Rate 0.0630 kg/ha): 9.0
Herbicidal rating MOOVA ([6]; 0.0313 kg/ha): 9.0
Herbicidal rating MOOVA ([6]; 0.0625 kg/ha): 9.0
Herbicidal rating MOOVA ([6]; 0.1250 kg/ha): 9.0
Herbicidal rating MOOVA ([6]; 0.2500 kg/ha): 9.0
Preemergence herbicidal rating ABUTH ([7]; rate 0.0313 kg/ha): 0.0
Preemergence herbicidal rating ABUTH ([7]; rate 0.0625 kg/ha): 6.0
Preemergence herbicidal rating ABUTH ([7]; rate 0.1250 kg/ha): 9.0
Preemergence herbicidal rating ABUTH ([7]; rate 0.2500 kg/ha): 9.0
Preemergence herbicidal rating GLXMAW ([8]; rate 0.0313 kg/ha): 0.0
Preemergence herbicidal rating GLXMAW ([8]; rate 0.0625 kg/ha): 0.0
Preemergence herbicidal rating GLXMAW ([8]; rate 0.1250 kg/ha): 1.0
Preemergence herbicidal rating GLXMAW ([8]; rate 0.2500 kg/ha): 3.0
Postemergence herbicidal rating CHEAL ([9]; Rate 0.0158 kg/ha): 2.0
Postemergence herbicidal rating CHEAL ([9]; Rate 0.0315 kg/ha): 7.0
Postemergence herbicidal rating CHEAL ([9]; Rate 0.0630 kg/ha): 9.0
Preemergence herbicidal rating ORYSAT ([10]; rate 0.0313 kg/ha): 0.0
Preemergence herbicidal rating ORYSAT ([10]; rate 0.0625 kg/ha): 0.0
Preemergence herbicidal rating ORYSAT ([10]; rate 0.1250 kg/ha): 0.0
Preemergence herbicidal rating ORYSAT ([10]; rate 0.2500 kg/ha): 1.0
Postemergence herbicidal rating GLXMAW ([11]; Rate 0.0158 kg/ha): 7.0
Postemergence herbicidal rating GLXMAW ([11]; Rate 0.0315 kg/ha): 9.0
Postemergence herbicidal rating GLXMAW ([11]; Rate 0.0630 kg/ha): 8.0
Preemergence herbicidal rating AMBEL ([12]; rate 0.0313 kg/ha): 0.0
Preemergence herbicidal rating AMBEL ([12]; rate 0.0625 kg/ha): 2.0
Preemergence herbicidal rating AMBEL ([12]; rate 0.1250 kg/ha): 6.0
Preemergence herbicidal rating AMBEL ([12]; rate 0.2500 kg/ha): 6.0
Postemergence herbicidal rating ECHCG ([13]; Rate 0.0158 kg/ha): 1.0
Postemergence herbicidal rating ECHCG ([13]; Rate 0.0315 kg/ha): 7.0
Postemergence herbicidal rating ECHCG ([13]; Rate 0.0630 kg/ha): 9.0
Preemergence herbicidal rating IPOHE ([14]; rate 0.0313 kg/ha): 0.0
Preemergence herbicidal rating IPOHE ([14]; rate 0.0625 kg/ha): 0.0
Preemergence herbicidal rating IPOHE ([14]; rate 0.1250 kg/ha): 9.0
Preemergence herbicidal rating IPOHE ([14]; rate 0.2500 kg/ha): 9.0
Preemergence herbicidal rating CASOB ([15]; rate 0.0313 kg/ha): 0.0
Preemergence herbicidal rating CASOB ([15]; rate 0.0625 kg/ha): 0.0
Preemergence herbicidal rating CASOB ([15]; rate 0.1250 kg/ha): 0.0
Preemergence herbicidal rating CASOB ([15]; rate 0.2500 kg/ha): 1.0
Herbicidal rating SAGPY ([16]; 0.0313 kg/ha): 0.0
Herbicidal rating SAGPY ([16]; 0.0625 kg/ha): 0.0
Herbicidal rating SAGPY ([16]; 0.1250 kg/ha): 0.0
Herbicidal rating SAGPY ([16]; 0.2500 kg/ha): 0.0
